In ChEMBL document CHEMBL2311358, “Inhibitors of HIV-1 attachment. Part 7: indole-7-carboxamides as potent and orally bioavailable antiviral agents” (Bioorg Med Chem Lett, 2013):
≈ marks a conversion by molar mass, not a printed value.

How the values were obtained:
[1] = Clearance in rat at 1 mg/kg, iv; format: ADME, organism-based; parameters: dose 1 mg/kg, route intravenous; conditions: in vivo
[2] = Aqueous solubility of the compound in crystalline form at pH 6.5; format: physicochemical
[3] = Permeability across human Caco2 cells at pH 6.5; format: ADME, cell-based; conditions: Caco-2, pH 6.5, read-out: permeability
[4] = Half life in human liver microsomes; format: ADME, Microsome
[5] = Cytotoxicity against human HeLa cells expressing CD4 assessed as cell viability after 6 days by XTT assay; format: cell-based
[6] = system: Human immunodeficiency virus 1; assay: Antiviral activity against HIV1 JRFL infected in human HeLa cells expressing CD4 and CCR5 assessed as inhibition of single-cycle viral replication by luciferase reporter gene assay; format: functional, organism-based; conditions: Human immunodeficiency virus 1, JRFL
[7] = Oral bioavailability in rat at 5 mg/kg; format: ADME, organism-based; conditions: in vivo
[8] = Plasma protein binding in human; format: ADME, cell-free; conditions: read-out: PPB (converted)
[9] = Inhibition of CYP450 (unknown origin); format: ADME, Homo sapiens
[10] = system: Hepatocyte; assay: Cytotoxicity against human hepatocytes expressing CYP3A4, CYP2C9, CYP2C19, CYP2D6; format: ADME, cell-based
[11] = Solubility of the compound in amorphous form in PEG 400 at pH 6.5; format: physicochemical; conditions: PEG 400, pH 6.5
[12] = AUC in monkey at 1 mg/kg, iv and 2.5 mg/kg, po; format: ADME, organism-based, Macaca mulatta; conditions: rhesus monkey, plasma
[13] = AUC in dog at 1 mg/kg, iv and 2.5 mg/kg, po; format: ADME, organism-based, Canis lupus familiaris; conditions: plasma
[14] = AUC in rat at 1 mg/kg, iv and 5 mg/kg, po; format: ADME, organism-based; conditions: plasma
[15] = Cmax in dog at 1 mg/kg, iv and 2.5 mg/kg, po; format: ADME, organism-based, Canis lupus familiaris; conditions: in vivo
[16] = Cmax in monkey at 1 mg/kg, iv and 2.5 mg/kg, po; format: ADME, organism-based, Macaca mulatta; conditions: rhesus monkey, in vivo
[17] = Cmax in rat at 1 mg/kg, iv and 5 mg/kg, po; format: ADME, organism-based; conditions: in vivo
[18] = Half life in dog at 1 mg/kg, iv; format: ADME, organism-based, Canis lupus familiaris; parameters: dose 1 mg/kg, route intravenous; conditions: in vivo
[19] = Half life in monkey at 1 mg/kg, iv; format: ADME, organism-based, Macaca mulatta; parameters: dose 1 mg/kg, route intravenous; conditions: rhesus monkey, in vivo
[20] = Oral bioavailability in monkey at 2.5 mg/kg; format: ADME, organism-based, Macaca mulatta; conditions: rhesus monkey, in vivo
[21] = Half life in rat at 1 mg/kg, iv; format: ADME, organism-based; parameters: dose 1 mg/kg, route intravenous; conditions: in vivo
[22] = Oral bioavailability in dog at 2.5 mg/kg; format: ADME, organism-based, Canis lupus familiaris; conditions: in vivo

Row | Compound | CC50 at 144 h [5] | EC50 [6] | other results
1 | O=C(C(=O)N1CCN(C(=O)c2ccccc2)CC1)c1c[nH]c2cccc(F)c12 | > 300 µM | 1.24 nM | clearance [1]: 48 mL/min/kg; solubility ([2]; buffer): 5 ng/mL (≈ 0.0132 µM); Papp [3]: 10 ×10⁻⁶ cm/s; half-life [4]: > 100 min
2 | O=C(Nc1ccccn1)c1ccc(F)c2c(C(=O)C(=O)N3CCN(C(=O)c4ccccc4)CC3)c[nH]c12 | 69 µM | 0.65 nM | –
3 | O=C(Nc1nnn[nH]1)c1ccc(F)c2c(C(=O)C(=O)N3CCN(C(=O)c4ccccc4)CC3)c[nH]c12 | > 300 µM | 0.4 nM | bioavailability [7]: < 1%; Papp [3]: < 1.5 ×10⁻⁶ cm/s; half-life [4]: > 100 min
4 | O=C(Nc1nncs1)c1ccc(F)c2c(C(=O)C(=O)N3CCN(C(=O)c4ccccc4)CC3)c[nH]c12 | 1.74 µM | 0.19 nM | –
5 | CCn1nccc1NC(=O)c1ccc(F)c2c(C(=O)C(=O)N3CCN(C(=O)c4ccccc4)CC3)c[nH]c12 | 166 µM | 3.07 nM | –
6 | Cc1cc(NC(=O)c2ccc(F)c3c(C(=O)C(=O)N4CCN(C(=O)c5ccccc5)CC4)c[nH]c23)on1 | > 300 µM | 0.94 nM | –
7 | O=C(NC1=NCCS1)c1ccc(F)c2c(C(=O)C(=O)N3CCN(C(=O)c4ccccc4)CC3)c[nH]c12 | > 300 µM | 0.02 nM | –
8 | O=C(Nc1nccs1)c1ccc(F)c2c(C(=O)C(=O)N3CCN(C(=O)c4ccccc4)CC3)c[nH]c12 | 89 µM | 0.057 nM | Papp [3]: > 30 ×10⁻⁶ cm/s; half-life [4]: 4.1 min
9 | Cc1csc(NC(=O)c2ccc(F)c3c(C(=O)C(=O)N4CCN(C(=O)c5ccccc5)CC4)c[nH]c23)n1 | 29 µM | 0.0058 nM | –
10 | O=C(Nc1nc2ccccc2s1)c1ccc(F)c2c(C(=O)C(=O)N3CCN(C(=O)c4ccccc4)CC3)c[nH]c12 | 81 µM | 0.32 nM | –
11 | O=C(Nc1nc2ccccc2[nH]1)c1ccc(F)c2c(C(=O)C(=O)N3CCN(C(=O)c4ccccc4)CC3)c[nH]c12 | 9.2 µM | 0.04 nM | –
12 | O=C(Nc1nc(-c2ccccc2)cs1)c1ccc(F)c2c(C(=O)C(=O)N3CCN(C(=O)c4ccccc4)CC3)c[nH]c12 | > 300 µM | 0.21 nM | –
13 | O=C(NCc1ccco1)c1ccc(F)c2c(C(=O)C(=O)N3CCN(C(=O)c4ccccc4)CC3)c[nH]c12 | 71 µM | 1.3 nM | –
14 | O=C(NCc1cccs1)c1ccc(F)c2c(C(=O)C(=O)N3CCN(C(=O)c4ccccc4)CC3)c[nH]c12 | 44 µM | 1.06 nM | –
15 | O=C(NCCc1cc2ccccc2[nH]1)c1ccc(F)c2c(C(=O)C(=O)N3CCN(C(=O)c4ccccc4)CC3)c[nH]c12 | > 300 µM | 1.08 nM | –
16 | CS(=O)(=O)NC(=O)c1ccc(F)c2c(C(=O)C(=O)N3CCN(C(=O)c4ccccc4)CC3)c[nH]c12 | > 300 µM | 2.64 nM | –
17 | O=C(NS(=O)(=O)c1ccccc1)c1ccc(F)c2c(C(=O)C(=O)N3CCN(C(=O)c4ccccc4)CC3)c[nH]c12 | > 300 µM | 0.29 nM | bioavailability [7]: < 2%; Papp [3]: 1.5 ×10⁻⁶ cm/s; half-life [4]: > 100 min
18 | COc1ccc(C(N)=O)c2[nH]cc(C(=O)C(=O)N3CCN(C(=O)c4ccccc4)CC3)c12 | 244 µM | 0.76 nM | –
19 | CNC(=O)c1ccc(OC)c2c(C(=O)C(=O)N3CCN(C(=O)c4ccccc4)CC3)c[nH]c12 | > 300 µM | 0.76 nM | Papp [3]: 3.9 ×10⁻⁶ cm/s; half-life [4]: 40 min

Row | Compound | CC50 at 144 h [5] | EC50 [6] | other results
20 | C[C@@H]1CN(C(=O)c2ccccc2)CCN1C(=O)C(=O)c1c[nH]c2c(C(N)=O)ccc(F)c12 | 141 µM | 0.14 nM | Papp [3]: 5.1 ×10⁻⁶ cm/s; half-life [4]: 25 min
21 | CNC(=O)c1ccc(F)c2c(C(=O)C(=O)N3CCN(C(=O)c4ccccc4)C[C@H]3C)c[nH]c12 | > 300 µM | 0.75 nM | –
22 | NC(=O)c1ccc(F)c2c(C(=O)C(=O)N3CCN(C(=O)c4ccccn4)CC3)c[nH]c12 | > 300 µM | 7.59 nM | –
23 | C[C@@H]1CN(C(=O)c2ccccn2)CCN1C(=O)C(=O)c1c[nH]c2c(C(N)=O)ccc(F)c12 | > 300 µM | 1.42 nM | –
24 | O=C(Nc1ccncc1)c1ccc(F)c2c(C(=O)C(=O)N3CCN(C(=O)c4ccccc4)CC3)c[nH]c12 | > 300 µM | 3.37 nM | –
25 | O=C(Nc1cccnc1)c1ccc(F)c2c(C(=O)C(=O)N3CCN(C(=O)c4ccccc4)CC3)c[nH]c12 | 132 µM | 9.09 nM | –
26 | NC(=O)c1ccc(F)c2c(C(=O)C(=O)N3CCN(C(=O)c4ccccc4)CC3)c[nH]c12 | > 300 µM | 2.03 nM | bioavailability [7]: 21%; Papp [3]: 2.4 ×10⁻⁶ cm/s; half-life [4]: > 100 min
27 | CNC(=O)c1ccc(F)c2c(C(=O)C(=O)N3CCN(C(=O)c4ccccc4)CC3)c[nH]c12 | > 300 µM | 0.52 nM | fraction unbound [8]: 0.011; IC50 [9]: > 90 µM; IC50 [10]: > 57 µM; clearance [1]: 12 mL/min/kg; solubility [11]: 18 mg/mL (≈ 41200 µM); solubility ([2]; aqueous, read-out: solubility): 33000 ng/mL (≈ 75.6 µM); AUC [12]: 3430 ng·h/mL; AUC [13]: 7030 ng·h/mL; AUC [14]: 4620 ng·h/mL; Cmax [15]: 1560 ng/mL; Cmax [16]: 1330 ng/mL; Cmax [17]: 843 ng/mL; half-life [18]: 139 min; half-life [19]: 251 min; bioavailability [20]: 70%; half-life [21]: 131 min; bioavailability [7]: 65%; bioavailability [22]: 93%; Papp [3]: 11.2 ×10⁻⁶ cm/s; half-life [4]: 81 min
28 | CN(C)C(=O)c1ccc(F)c2c(C(=O)C(=O)N3CCN(C(=O)c4ccccc4)CC3)c[nH]c12 | > 300 µM | 407 nM | –
29 | CONC(=O)c1ccc(F)c2c(C(=O)C(=O)N3CCN(C(=O)c4ccccc4)CC3)c[nH]c12 | > 300 µM | 3.83 nM | –
30 | NNC(=O)c1ccc(F)c2c(C(=O)C(=O)N3CCN(C(=O)c4ccccc4)CC3)c[nH]c12 | > 300 µM | 2.69 nM | –
31 | COCCNC(=O)c1ccc(F)c2c(C(=O)C(=O)N3CCN(C(=O)c4ccccc4)CC3)c[nH]c12 | 298 µM | 18.8 nM | –
32 | NCCNC(=O)c1ccc(F)c2c(C(=O)C(=O)N3CCN(C(=O)c4ccccc4)CC3)c[nH]c12 | 135 µM | 12.8 nM | –
33 | CN(C)CCNC(=O)c1ccc(F)c2c(C(=O)C(=O)N3CCN(C(=O)c4ccccc4)CC3)c[nH]c12 | > 300 µM | 316 nM | –
34 | O=C(NCCN1CCOCC1)c1ccc(F)c2c(C(=O)C(=O)N3CCN(C(=O)c4ccccc4)CC3)c[nH]c12 | > 300 µM | 7.95 nM | –
35 | CC(=O)N1CC(NC(=O)c2ccc(F)c3c(C(=O)C(=O)N4CCN(C(=O)c5ccccc5)CC4)c[nH]c23)C1 | > 300 µM | 11.2 nM | –
36 | O=C(NCc1ccccc1)c1ccc(F)c2c(C(=O)C(=O)N3CCN(C(=O)c4ccccc4)CC3)c[nH]c12 | > 300 µM | 109 nM | –
37 | O=C(NCc1nc2ccccc2[nH]1)c1ccc(F)c2c(C(=O)C(=O)N3CCN(C(=O)c4ccccc4)CC3)c[nH]c12 | > 300 µM | 6.73 nM | –
38 | COc1ncc(OC)c2c(C(=O)C(=O)N3CCN(C(=O)c4ccccc4)CC3)c[nH]c12 | > 300 µM | 0.75 nM | –
